The target in test [1] is T1, Adenosine receptor A3 (Homo sapiens, UniProt P0DMS8).
T1 sequence (P0DMS8 whole entry): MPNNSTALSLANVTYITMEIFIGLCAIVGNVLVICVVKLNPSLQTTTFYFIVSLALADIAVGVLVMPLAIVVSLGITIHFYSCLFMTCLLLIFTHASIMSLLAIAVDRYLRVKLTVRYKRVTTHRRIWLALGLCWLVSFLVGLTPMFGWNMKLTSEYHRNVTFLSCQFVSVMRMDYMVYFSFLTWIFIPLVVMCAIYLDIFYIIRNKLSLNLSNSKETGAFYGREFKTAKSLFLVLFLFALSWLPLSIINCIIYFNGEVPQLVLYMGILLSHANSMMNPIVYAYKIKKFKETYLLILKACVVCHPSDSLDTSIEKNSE
The test can be described thus: Inhibition of adenosine A3 receptor (unknown origin).

Test [2] has as its target Translocator protein (Homo sapiens, UniProt P30536). Nature of the test: Inhibition of peripheral-type benzodiazepine receptor (unknown origin).

pIC50: −log10 of the molar value.

Sequence of Translocator protein (P30536 whole entry): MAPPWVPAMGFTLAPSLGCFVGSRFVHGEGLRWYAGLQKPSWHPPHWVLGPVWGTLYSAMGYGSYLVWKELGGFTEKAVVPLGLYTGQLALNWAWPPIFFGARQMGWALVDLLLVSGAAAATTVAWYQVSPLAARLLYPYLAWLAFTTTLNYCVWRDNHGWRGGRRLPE

The term pIC50 denotes the negative decadic logarithm of the IC50, by convention in mol/L. As to `COC(=O)C[C@@H]1N=C(c2ccc(Cl)cc2)c2c(sc(C)c2C)-n2c(C)nnc21`, the pIC50 in test [1] was 5.85; in test [2] it was 6.40.
